Measured values reported in PMC11124822, “Discovery and Anticancer Screening of Novel Oxindole-Based Derivative Bearing Pyridyl Group as Potent and Selective Dual FLT3/CDK2 Kinase Inhibitor” (Pharmaceuticals, 2024).

Each molecule was assayed on MOLT-4 (assay: NCI-60 antiproliferative screen (SRB)). Settings: Homo sapiens; 10 µM single dose, 48 h; MOLT-4 (Leukemia); read-out: Growth inhibition (%).
Type: cell-based
`O=C1Nc2ccc(F)cc2C1=Cc1ccc(OCc2ccncc2)cc1` (mixture of isomers) [Compound 5n, (E/Z)-5-Fluoro-3-[4-(pyridin-4-ylmethoxy)benzylidene] indolin-2-one] showed an inhibition at 10 µM of 76.7%.

Each molecule was assayed on RPMI-8226 (assay: NCI-60 antiproliferative screen (SRB)). Settings: Homo sapiens; 10 µM single dose, 48 h; RPMI-8226 (Leukemia); read-out: Growth inhibition (%).
Type: cell-based, human
In the case of `O=C1Nc2ccc(F)cc2C1=Cc1ccc(OCc2ccncc2)cc1` (mixture of isomers) [Compound 5n, (E/Z)-5-Fluoro-3-[4-(pyridin-4-ylmethoxy)benzylidene] indolin-2-one], the inhibition at 10 µM is reported as 64.5%.

What follows are molecules tested on HOP-62 (assay: NCI-60 antiproliferative screen (SRB)). Settings: Homo sapiens; 10 µM single dose, 48 h; HOP-62 (NSCLC); read-out: Growth inhibition (%).
Type: cell-based, human
Work on `O=C1Nc2ccc(F)cc2C1=Cc1ccc(OCc2ccncc2)cc1` (mixture of isomers) [Compound 5n, (E/Z)-5-Fluoro-3-[4-(pyridin-4-ylmethoxy)benzylidene] indolin-2-one] yielded an inhibition at 10 µM of 17%.

What follows are molecules tested on HCC-2998 (assay: NCI-60 antiproliferative screen (SRB)). Settings: Homo sapiens; 10 µM single dose, 48 h; HCC-2998 (Colon); read-out: Growth inhibition (%).
Type: cell-based, human
`O=C1Nc2ccc(F)cc2C1=Cc1ccc(OCc2ccncc2)cc1` (mixture of isomers) [Compound 5n, (E/Z)-5-Fluoro-3-[4-(pyridin-4-ylmethoxy)benzylidene] indolin-2-one] was tested, and the inhibition at 10 µM was 25.7%.

These molecules were tested on HCT-116 (assay: NCI-60 antiproliferative screen (SRB)). Settings: Homo sapiens; 10 µM single dose, 48 h; HCT-116 (Colon); read-out: Growth inhibition (%).
Type: cell-based, human
In the case of `O=C1Nc2ccc(F)cc2C1=Cc1ccc(OCc2ccncc2)cc1` (mixture of isomers) [Compound 5n, (E/Z)-5-Fluoro-3-[4-(pyridin-4-ylmethoxy)benzylidene] indolin-2-one], the inhibition at 10 µM is reported as 56.1%.

What follows are molecules tested on KM12 (assay: NCI-60 antiproliferative screen (SRB)). Settings: Homo sapiens; 10 µM single dose, 48 h; KM12 (Colon); read-out: Growth inhibition (%).
Type: cell-based, human
For `O=C1Nc2ccc(F)cc2C1=Cc1ccc(OCc2ccncc2)cc1` (mixture of isomers) [Compound 5n, (E/Z)-5-Fluoro-3-[4-(pyridin-4-ylmethoxy)benzylidene] indolin-2-one], the inhibition at 10 µM was 69.8%.

The molecules below were run on SW-620 (assay: NCI-60 antiproliferative screen (SRB)). Settings: Homo sapiens; 10 µM single dose, 48 h; SW-620 (Colon); read-out: Growth inhibition (%).
Type: cell-based, human
`O=C1Nc2ccc(F)cc2C1=Cc1ccc(OCc2ccncc2)cc1` (mixture of isomers) [Compound 5n, (E/Z)-5-Fluoro-3-[4-(pyridin-4-ylmethoxy)benzylidene] indolin-2-one] showed an inhibition at 10 µM of 41.1%.

Each molecule was assayed on SF-295 (assay: NCI-60 antiproliferative screen (SRB)). Settings: Homo sapiens; 10 µM single dose, 48 h; SF-295 (CNS); read-out: Growth inhibition (%).
Type: cell-based, human
`O=C1Nc2ccc(F)cc2C1=Cc1ccc(OCc2ccncc2)cc1` (mixture of isomers) [Compound 5n, (E/Z)-5-Fluoro-3-[4-(pyridin-4-ylmethoxy)benzylidene] indolin-2-one] was tested, and the inhibition at 10 µM was 51.7%.

Each molecule was assayed on SF-539 (assay: NCI-60 antiproliferative screen (SRB)). Settings: Homo sapiens; 10 µM single dose, 48 h; SF-539 (CNS); read-out: Growth inhibition (%).
Type: cell-based, human
For `O=C1Nc2ccc(F)cc2C1=Cc1ccc(OCc2ccncc2)cc1` (mixture of isomers) [Compound 5n, (E/Z)-5-Fluoro-3-[4-(pyridin-4-ylmethoxy)benzylidene] indolin-2-one], the inhibition at 10 µM was 41.7%.

Each molecule was assayed on U251 (assay: NCI-60 antiproliferative screen (SRB)). Settings: Homo sapiens, U-251; 10 µM single dose, 48 h; U251 (CNS); read-out: Growth inhibition (%).
Type: cell-based, human
`O=C1Nc2ccc(F)cc2C1=Cc1ccc(OCc2ccncc2)cc1` (mixture of isomers) [Compound 5n, (E/Z)-5-Fluoro-3-[4-(pyridin-4-ylmethoxy)benzylidene] indolin-2-one] was tested, and the inhibition at 10 µM was 61.3%.

The molecules below were run on MALME-3M (assay: NCI-60 antiproliferative screen (SRB)). Settings: Homo sapiens; 10 µM single dose, 48 h; MALME-3M (Melanoma); read-out: Growth inhibition (%).
Type: cell-based, human
For `O=C1Nc2ccc(F)cc2C1=Cc1ccc(OCc2ccncc2)cc1` (mixture of isomers) [Compound 5n, (E/Z)-5-Fluoro-3-[4-(pyridin-4-ylmethoxy)benzylidene] indolin-2-one], the inhibition at 10 µM was 26.8%.

What follows are molecules tested on M14 (assay: NCI-60 antiproliferative screen (SRB)). Settings: Homo sapiens; 10 µM single dose, 48 h; M14 (Melanoma); read-out: Growth inhibition (%).
Type: cell-based, human
Molecule `O=C1Nc2ccc(F)cc2C1=Cc1ccc(OCc2ccncc2)cc1` (mixture of isomers) [Compound 5n, (E/Z)-5-Fluoro-3-[4-(pyridin-4-ylmethoxy)benzylidene] indolin-2-one] has an inhibition at 10 µM of 32.5%.

These molecules were tested on SK-MEL-2 (assay: NCI-60 antiproliferative screen (SRB)). Settings: Homo sapiens; 10 µM single dose, 48 h; SK-MEL-2 (Melanoma); read-out: Growth inhibition (%).
Type: cell-based, human
Work on `O=C1Nc2ccc(F)cc2C1=Cc1ccc(OCc2ccncc2)cc1` (mixture of isomers) [Compound 5n, (E/Z)-5-Fluoro-3-[4-(pyridin-4-ylmethoxy)benzylidene] indolin-2-one] yielded an inhibition at 10 µM of 28.1%.

Each molecule was assayed on SK-MEL-28 (assay: NCI-60 antiproliferative screen (SRB)). Settings: Homo sapiens; 10 µM single dose, 48 h; SK-MEL-28 (Melanoma); read-out: Growth inhibition (%).
Type: cell-based, human
`O=C1Nc2ccc(F)cc2C1=Cc1ccc(OCc2ccncc2)cc1` (mixture of isomers) [Compound 5n, (E/Z)-5-Fluoro-3-[4-(pyridin-4-ylmethoxy)benzylidene] indolin-2-one] was tested, and the inhibition at 10 µM was -9.39%.

What follows are molecules tested on UACC-257 (assay: NCI-60 antiproliferative screen (SRB)). Settings: Homo sapiens; 10 µM single dose, 48 h; UACC-257 (Melanoma); read-out: Growth inhibition (%).
Type: cell-based, human
`O=C1Nc2ccc(F)cc2C1=Cc1ccc(OCc2ccncc2)cc1` (mixture of isomers) [Compound 5n, (E/Z)-5-Fluoro-3-[4-(pyridin-4-ylmethoxy)benzylidene] indolin-2-one] showed an inhibition at 10 µM of 23.4%.

The molecules below were run on OVCAR-3 (assay: NCI-60 antiproliferative screen (SRB)). Settings: Homo sapiens; 10 µM single dose, 48 h; OVCAR-3 (Ovarian); read-out: Growth inhibition (%).
Type: cell-based, human
For `O=C1Nc2ccc(F)cc2C1=Cc1ccc(OCc2ccncc2)cc1` (mixture of isomers) [Compound 5n, (E/Z)-5-Fluoro-3-[4-(pyridin-4-ylmethoxy)benzylidene] indolin-2-one], the inhibition at 10 µM was 39.2%.

Each molecule was assayed on OVCAR-5 (assay: NCI-60 antiproliferative screen (SRB)). Settings: Homo sapiens; 10 µM single dose, 48 h; OVCAR-5 (Ovarian); read-out: Growth inhibition (%).
Type: cell-based, human
`O=C1Nc2ccc(F)cc2C1=Cc1ccc(OCc2ccncc2)cc1` (mixture of isomers) [Compound 5n, (E/Z)-5-Fluoro-3-[4-(pyridin-4-ylmethoxy)benzylidene] indolin-2-one] was tested, and the inhibition at 10 µM was -27.6%.

Each molecule was assayed on OVCAR-8 (assay: NCI-60 antiproliferative screen (SRB)). Settings: Homo sapiens; 10 µM single dose, 48 h; OVCAR-8 (Ovarian); read-out: Growth inhibition (%).
Type: cell-based, human
In the case of `O=C1Nc2ccc(F)cc2C1=Cc1ccc(OCc2ccncc2)cc1` (mixture of isomers) [Compound 5n, (E/Z)-5-Fluoro-3-[4-(pyridin-4-ylmethoxy)benzylidene] indolin-2-one], the inhibition at 10 µM is reported as 56.2%.

The molecules below were run on NCI/ADR-RES (assay: NCI-60 antiproliferative screen (SRB)). Settings: Homo sapiens; 10 µM single dose, 48 h; NCI/ADR-RES (Ovarian); read-out: Growth inhibition (%).
Type: cell-based, human
`O=C1Nc2ccc(F)cc2C1=Cc1ccc(OCc2ccncc2)cc1` (mixture of isomers) [Compound 5n, (E/Z)-5-Fluoro-3-[4-(pyridin-4-ylmethoxy)benzylidene] indolin-2-one] showed an inhibition at 10 µM of 74.2%.

What follows are molecules tested on A498 (assay: NCI-60 antiproliferative screen (SRB)). Settings: Homo sapiens; 10 µM single dose, 48 h; A498 (Renal); read-out: Growth inhibition (%).
Type: cell-based, human
For `O=C1Nc2ccc(F)cc2C1=Cc1ccc(OCc2ccncc2)cc1` (mixture of isomers) [Compound 5n, (E/Z)-5-Fluoro-3-[4-(pyridin-4-ylmethoxy)benzylidene] indolin-2-one], the inhibition at 10 µM was 12.9%.

These molecules were tested on CAKI-1 (assay: NCI-60 antiproliferative screen (SRB)). Settings: Homo sapiens; 10 µM single dose, 48 h; CAKI-1 (Renal); read-out: Growth inhibition (%).
Type: cell-based, human
`O=C1Nc2ccc(F)cc2C1=Cc1ccc(OCc2ccncc2)cc1` (mixture of isomers) [Compound 5n, (E/Z)-5-Fluoro-3-[4-(pyridin-4-ylmethoxy)benzylidene] indolin-2-one] gave an inhibition at 10 µM of 62.3%.

What follows are molecules tested on RXF 393 (assay: NCI-60 antiproliferative screen (SRB)). Settings: Homo sapiens; 10 µM single dose, 48 h; RXF 393 (Renal); read-out: Growth inhibition (%).
Type: cell-based, human
`O=C1Nc2ccc(F)cc2C1=Cc1ccc(OCc2ccncc2)cc1` (mixture of isomers) [Compound 5n, (E/Z)-5-Fluoro-3-[4-(pyridin-4-ylmethoxy)benzylidene] indolin-2-one] gave an inhibition at 10 µM of 47.6%.

These molecules were tested on UO-31 (assay: NCI-60 antiproliferative screen (SRB)). Settings: Homo sapiens; 10 µM single dose, 48 h; UO-31 (Renal); read-out: Growth inhibition (%).
Type: cell-based, human
In the case of `O=C1Nc2ccc(F)cc2C1=Cc1ccc(OCc2ccncc2)cc1` (mixture of isomers) [Compound 5n, (E/Z)-5-Fluoro-3-[4-(pyridin-4-ylmethoxy)benzylidene] indolin-2-one], the inhibition at 10 µM is reported as 54.8%.

What follows are molecules tested on PC-3 (assay: NCI-60 antiproliferative screen (SRB)). Settings: Homo sapiens; 10 µM single dose, 48 h; PC-3 (Prostate); read-out: Growth inhibition (%).
Type: cell-based, human
`O=C1Nc2ccc(F)cc2C1=Cc1ccc(OCc2ccncc2)cc1` (mixture of isomers) [Compound 5n, (E/Z)-5-Fluoro-3-[4-(pyridin-4-ylmethoxy)benzylidene] indolin-2-one] showed an inhibition at 10 µM of 47.4%.

What follows are molecules tested on DU-145 (assay: NCI-60 antiproliferative screen (SRB)). Settings: Homo sapiens; 10 µM single dose, 48 h; DU-145 (Prostate); read-out: Growth inhibition (%).
Type: cell-based, human
`O=C1Nc2ccc(F)cc2C1=Cc1ccc(OCc2ccncc2)cc1` (mixture of isomers) [Compound 5n, (E/Z)-5-Fluoro-3-[4-(pyridin-4-ylmethoxy)benzylidene] indolin-2-one] gave an inhibition at 10 µM of 38.4%.

Each molecule was assayed on MCF7 (assay: NCI-60 antiproliferative screen (SRB)). Settings: Homo sapiens; 10 µM single dose, 48 h; MCF7 (Breast); read-out: Growth inhibition (%).
Type: cell-based, human
In the case of `O=C1Nc2ccc(F)cc2C1=Cc1ccc(OCc2ccncc2)cc1` (mixture of isomers) [Compound 5n, (E/Z)-5-Fluoro-3-[4-(pyridin-4-ylmethoxy)benzylidene] indolin-2-one], the inhibition at 10 µM is reported as 91.8%.

These molecules were tested on MDA-MB-231 (assay: NCI-60 antiproliferative screen (SRB)). Settings: Homo sapiens; 10 µM single dose, 48 h; MDA-MB-231 (Breast); read-out: Growth inhibition (%).
Type: cell-based, human
`O=C1Nc2ccc(F)cc2C1=Cc1ccc(OCc2ccncc2)cc1` (mixture of isomers) [Compound 5n, (E/Z)-5-Fluoro-3-[4-(pyridin-4-ylmethoxy)benzylidene] indolin-2-one] was tested, and the inhibition at 10 µM was 20.7%.

What follows are molecules tested on MDA-MB-468 (assay: NCI-60 antiproliferative screen (SRB)). Settings: Homo sapiens; 10 µM single dose, 48 h; MDA-MB-468 (Breast); read-out: Growth inhibition (%).
Type: cell-based, human
`O=C1Nc2ccc(F)cc2C1=Cc1ccc(OCc2ccncc2)cc1` (mixture of isomers) [Compound 5n, (E/Z)-5-Fluoro-3-[4-(pyridin-4-ylmethoxy)benzylidene] indolin-2-one] was tested, and the inhibition at 10 µM was 61.8%.

These molecules were tested on SR (assay: NCI-60 antiproliferative screen (SRB)). Settings: Homo sapiens, 48 h, read-out: Growth inhibition (%).
Experimental: Anticancer activity was tested against 60 cancer cell lines (NCI-60) after 48h treatments with a single dosage of 10 μM of compounds by using sulforhodamine B assay [39] on the traditional 96-well platform. […] The human cancer cell lines of the NCI-60 panel are grown in RPMI 1640 medium supplemented with 5% FBS (fetal bovine serum) and 2 mM L-glutamine. […] For further analysis of promising compounds, five dose screens were performed against the NCI-60 panel. Drug treatments are performed in 5 doses using 10-fold or ½ log dose dilutions.
`O=C1Nc2ccc(F)cc2C1=Cc1ccc(OCc2ccncc2)cc1` (mixture of isomers) [Compound 5n, (E/Z)-5-Fluoro-3-[4-(pyridin-4-ylmethoxy)benzylidene] indolin-2-one] gave an inhibition at 10 µM of 85.4%.

What follows are molecules tested on OVCAR-4 (assay: NCI-60 antiproliferative screen (SRB)). Settings: Homo sapiens, OVCAR-4, 48 h, read-out: Growth inhibition (%).
`O=C1Nc2ccc(F)cc2C1=Cc1ccc(OCc2ccncc2)cc1` (mixture of isomers) [Compound 5n, (E/Z)-5-Fluoro-3-[4-(pyridin-4-ylmethoxy)benzylidene] indolin-2-one] was tested, and the inhibition at 10 µM was 43.4%.
